According to PMC8667043, “First-in-Class Inhibitors of the Ribosomal Oxygenase MINA53” (Journal of Medicinal Chemistry, 2021):

Experiments:
Type in all cases: biochemical
[1] = biological target: T1, NO66 (Homo sapiens, UniProt Q9H6W3); test: NO66 MS (RapidFire) hydroxylation inhibition assay, Rpl8 peptide; settings: for IC50: IC50 NO66 (300 nM), MS based, enzyme 300 nM, means ± SD of at least three experiments
T1 construct: histidine tag (TEV-cleavable) (cleaved yes); made in house; host or cells: E. coli BL21(DE3)-R3-pRARE2
T1 sequence (Q9H6W3 183-641): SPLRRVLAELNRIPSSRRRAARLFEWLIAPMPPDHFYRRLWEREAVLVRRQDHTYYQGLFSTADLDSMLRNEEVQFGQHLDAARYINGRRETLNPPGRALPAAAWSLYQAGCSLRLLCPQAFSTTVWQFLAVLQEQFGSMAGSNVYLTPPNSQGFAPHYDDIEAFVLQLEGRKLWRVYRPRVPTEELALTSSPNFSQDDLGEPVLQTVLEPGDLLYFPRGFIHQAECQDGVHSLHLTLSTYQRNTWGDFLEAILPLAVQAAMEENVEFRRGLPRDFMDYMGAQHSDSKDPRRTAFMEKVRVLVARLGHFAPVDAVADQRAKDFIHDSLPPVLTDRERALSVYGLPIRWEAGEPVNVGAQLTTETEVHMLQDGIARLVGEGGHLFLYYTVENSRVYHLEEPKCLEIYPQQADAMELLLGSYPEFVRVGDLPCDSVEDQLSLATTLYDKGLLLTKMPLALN

[2] = biological target: T2, KDM2A (Homo sapiens, UniProt Q9Y2K7); test: AlphaScreen KDM inhibition assay; settings: enzyme 25 nM, means ± SD
T2 construct: (M1-P517); His6 (N); made in house; host or cells: insect cells
T2 sequence (Q9Y2K7 1-517): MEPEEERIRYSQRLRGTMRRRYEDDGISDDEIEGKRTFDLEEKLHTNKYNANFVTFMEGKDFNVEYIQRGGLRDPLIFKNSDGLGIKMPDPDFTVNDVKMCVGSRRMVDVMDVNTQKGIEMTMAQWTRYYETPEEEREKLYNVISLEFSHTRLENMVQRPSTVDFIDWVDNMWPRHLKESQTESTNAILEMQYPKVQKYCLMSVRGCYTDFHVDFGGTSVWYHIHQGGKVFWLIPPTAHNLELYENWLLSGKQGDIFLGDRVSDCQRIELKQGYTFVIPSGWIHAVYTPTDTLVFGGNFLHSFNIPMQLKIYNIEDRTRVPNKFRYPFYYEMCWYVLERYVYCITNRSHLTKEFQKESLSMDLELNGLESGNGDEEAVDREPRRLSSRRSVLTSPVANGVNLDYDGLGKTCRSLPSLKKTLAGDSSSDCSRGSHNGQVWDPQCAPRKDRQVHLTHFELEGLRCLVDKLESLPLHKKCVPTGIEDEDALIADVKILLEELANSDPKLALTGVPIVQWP

[3] = biological target: T3, KDM4A (Homo sapiens, UniProt O75164); test: AlphaScreen KDM inhibition assay; settings: read-out: IC50 KDM4A (4 nM), enzyme 4 nM, means ± SD
T3 construct: (M1- N-terminal R1641) His6-tagged N-terminal His6-tagged L359); made in house; host or cells: E. coli
T3 sequence (O75164 1-359): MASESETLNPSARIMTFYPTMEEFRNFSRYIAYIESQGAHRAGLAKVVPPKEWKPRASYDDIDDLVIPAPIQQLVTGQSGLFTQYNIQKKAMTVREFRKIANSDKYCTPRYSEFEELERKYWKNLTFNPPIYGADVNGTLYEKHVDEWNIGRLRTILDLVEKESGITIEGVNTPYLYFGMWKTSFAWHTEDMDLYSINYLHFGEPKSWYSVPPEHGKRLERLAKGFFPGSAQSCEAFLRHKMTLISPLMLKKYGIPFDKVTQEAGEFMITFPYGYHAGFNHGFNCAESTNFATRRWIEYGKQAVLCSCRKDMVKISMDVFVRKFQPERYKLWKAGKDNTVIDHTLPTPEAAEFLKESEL

[4] = biological target: T4, KDM6B (Homo sapiens, UniProt O15054); test: AlphaScreen KDM inhibition assay; settings: read-out: IC50 KDM6B (0.1 nM), enzyme 0.1 nM, means ± SD
T4 construct: (D1141- N-terminal S1761) N-terminal (M1- N-terminal R1641); made in house; host or cells: E. coli

[5] = biological target: T5, PCAF (Homo sapiens, UniProt Q92831); test: HotSpot KAT assay; settings: means ± SD of three experiments, read-out: Residual Enzymatic Activity (%) PCAF
T5 construct: purchased Reaction Biology Corporation, Malvern, PA, USA
Procedure: (§1) The ef fects of 1-13 on th e histone lysine acetyltr a nsferas e activity (KAT ) o f p300 and PCAF were
(§2) determined using the HotSpot KAT assay ( Reaction Biology Corporation, Malvern, PA, USA)
(§3) according to the supplier’s procedure. In brief, recombinant form s of catal ytic domains of PCAF
(§4) NaCl, 0.1 mM EDTA, 1 mM DTT, 1 mM PMSF, 1% (v/v) DMSO) fo r 1 h at 30 °C in the presenc e
(§5) or absence of various concentrations of the inhibitors. Histone H3 acetyl ation was assessed by
(§6) liquid scintillation counting using a Tri-Carb 2800TR Liquid Scintillation Analyzer
(§7) (PerkinElmer). Assays at fixed con centration doses were performed in triplicate and analyzed
(§8) using Excel and GraphPad Prism 6.0 software (GraphPad Software Inc., San Diego, CA).

[6] = biological target: T6, p300 (Homo sapiens, UniProt Q09472); test: HotSpot KAT assay; settings: 100 µM; means ± SD of three experiments; read-out: Residual Enzymatic Activity (%) p300
T6 construct: purchased Reaction Biology Corporation, Malvern, PA, USA
T6 sequence (Q09472 1284-1673): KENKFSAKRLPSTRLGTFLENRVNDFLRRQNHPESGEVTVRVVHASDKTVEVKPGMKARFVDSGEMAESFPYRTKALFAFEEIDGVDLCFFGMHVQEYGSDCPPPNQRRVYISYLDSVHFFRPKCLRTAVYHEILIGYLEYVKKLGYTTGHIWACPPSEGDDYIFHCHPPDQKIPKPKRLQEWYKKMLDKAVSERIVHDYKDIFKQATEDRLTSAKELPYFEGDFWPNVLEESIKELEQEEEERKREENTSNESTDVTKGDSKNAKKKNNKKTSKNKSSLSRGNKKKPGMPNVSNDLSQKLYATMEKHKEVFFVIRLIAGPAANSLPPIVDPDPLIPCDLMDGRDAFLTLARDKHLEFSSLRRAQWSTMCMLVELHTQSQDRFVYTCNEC
Procedure: as §1, §2, §3, §4, §5, §6, §7, §8

T4 sequence (O15054 1141-1643 limits assumed): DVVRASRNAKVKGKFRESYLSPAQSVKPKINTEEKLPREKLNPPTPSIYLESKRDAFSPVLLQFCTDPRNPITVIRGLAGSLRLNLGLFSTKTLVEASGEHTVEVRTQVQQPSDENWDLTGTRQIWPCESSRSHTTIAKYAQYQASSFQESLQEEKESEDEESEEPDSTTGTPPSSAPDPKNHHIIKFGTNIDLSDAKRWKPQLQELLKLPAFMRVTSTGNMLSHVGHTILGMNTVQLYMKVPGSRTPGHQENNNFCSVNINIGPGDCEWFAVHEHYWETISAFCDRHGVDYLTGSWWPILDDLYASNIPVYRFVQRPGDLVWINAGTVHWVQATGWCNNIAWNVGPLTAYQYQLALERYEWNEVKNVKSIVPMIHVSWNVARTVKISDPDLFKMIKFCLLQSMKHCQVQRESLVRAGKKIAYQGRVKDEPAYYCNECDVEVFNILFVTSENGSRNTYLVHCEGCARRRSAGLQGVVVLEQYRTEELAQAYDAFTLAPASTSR
T5 sequence (Q92831 492-658): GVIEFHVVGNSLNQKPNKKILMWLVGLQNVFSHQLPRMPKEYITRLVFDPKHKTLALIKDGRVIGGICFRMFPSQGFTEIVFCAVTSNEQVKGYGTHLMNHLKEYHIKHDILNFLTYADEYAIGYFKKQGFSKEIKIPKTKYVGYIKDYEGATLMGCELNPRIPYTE

| Compound | IC50 [1] | IC50 [2] | IC50 [3] | IC50 [4] | remaining activity at 100 µM [5] | remaining activity at 100 µM [6] | increase in potency for NO66 (compare 8 with 9) ([1]; relative to 9) |
| --- | --- | --- | --- | --- | --- | --- | --- |
| O=C(O)c1c[nH]c(=S)[nH]c1=O [compound 1] | > 200 µM | > 100 µM | > 100 µM | > 100 µM | 99.2 ± 2.7% | 98.7 ± 3% |  |
| CCCCSc1ncc(C(=O)O)c(=O)[nH]1 [compound 3, 2-(Butylthio)-3,4-dihydro-4-oxopyrimidine-5-carboxylic Acid] | 163 ± 6 µM | 24.2 ± 2 µM | 9.1 ± 0.6 µM | 43 ± 2 µM | 101 ± 3.7% | 103 ± 2% |  |
| CCCCCCCCCSc1ncc(C(=O)O)c(=O)[nH]1 [compound 5, 2-(Nonylthio)-3,4-dihydro-4-oxopyrimidine-5-carboxylic Acid] | > 200 µM | 58.4 ± 3 µM | 13.4 ± 1 µM | 67.1 ± 3 µM | 104 ± 3.7% | 106 ± 3.5% |  |
| O=C(O)c1cnc(SCCc2ccccc2)[nH]c1=O [compound 9, 2-(Phenethylthio)-3,4-dihydro-4-oxopyrimidine-5-carboxylic Acid] | 71.7 ± 4 µM | 52.7 ± 4 µM | 19 ± 1.2 µM | 47.4 ± 4 µM | 102 ± 2.1% | 107 ± 4.8% |  |
| O=C(O)c1cnc(SCCCc2ccccc2)[nH]c1=O [compound 10, 2-((3-Phenylpropyl)thio)-3,4-dihydro-4-oxopyrimidine-5-carboxylic Acid] | 36.9 ± 2 µM | 68.3 ± 4.2 µM | 74.2 ± 4.8 µM | 70 ± 4 µM | 101 ± 2.7% | 97.9 ± 2% |  |
| O=C(O)c1cnc(SCCCCc2ccccc2)[nH]c1=O [compound 11, 2-((4-Phenylbutyl)thio)-3,4-dihydro-4-oxopyrimidine-5-carboxylic Acid] | 22.9 ± 2 µM | 64 ± 4 µM | 14.3 ± 1 µM | 45.8 ± 3 µM | 100 ± 3.7% | 98.6 ± 2.2% |  |

Results, then the compound that gave them:

| IC50 [1] | IC50 [2] | IC50 [3] | IC50 [4] | remaining activity at 100 µM [5] | remaining activity at 100 µM [6] | increase in potency for NO66 (compare 8 with 9) ([1]; relative to 9) | Compound |
| --- | --- | --- | --- | --- | --- | --- | --- |
| 40.2 ± 2 µM | 69.6 ± 3 µM | 17.6 ± 2 µM | 71.6 ± 3 µM | 100 ± 2.5% | 97.8 ± 3% |  | CSc1ncc(C(=O)O)c(=O)[nH]1 [compound 2, 2-(Methylthio)-3,4-dihydro-4-oxopyrimidine-5-carboxylic Acid] |
| 81.2 ± 4 µM | 49.6 ± 4 µM | 16.5 ± 1.8 µM | 59.7 ± 4 µM | 100 ± 2.9% | 97.7 ± 3% |  | CCCCCSc1ncc(C(=O)O)c(=O)[nH]1 [compound 4, 2-(Pentylthio)-3,4-dihydro-4-oxopyrimidine-5-carboxylic Acid] |
| 182 ± 8 µM | 97.9 ± 7 µM | 20.8 ± 2 µM | 38.1 ± 3 µM | 99.2 ± 2.1% | 104 ± 4.1% |  | O=C(O)c1cnc(SCC2CCCCC2)[nH]c1=O [compound 6, 2-((Cyclohexylmethyl)thio)-3,4-dihydro-4-oxopyrimidine-5-carboxylic Acid] |
| 48 ± 3 µM | 67.2 ± 3 µM | 24.6 ± 1.8 µM | 74.6 ± 2 µM | 101 ± 2.9% | 107 ± 3.8% |  | O=C(O)c1cnc(SCc2ccccc2)[nH]c1=O [compound 7, 2-(Benzylthio)-3,4-dihydro-4-oxopyrimidine-5-carboxylic Acid] |
| 23.5 ± 2 µM | 45.5 ± 3 µM | 32.8 ± 2.1 µM | 46.4 ± 3 µM | 103 ± 3.7% | 106 ± 3.5% | > 2 fold | O=C(CSc1ncc(C(=O)O)c(=O)[nH]1)c1ccccc1 [compound 8, 2-((2-Oxo-2-phenylethyl)thio)-3,4-dihydro-4-oxopyrimidine-5-carboxylic Acid] |
| 80.2 ± 5 µM | 61.2 ± 4 µM | 11.2 ± 0.9 µM | 28.6 ± 1.6 µM | 103 ± 2.3% | 104 ± 4.1% |  | CCOC(=O)/C=C\Sc1ncc(C(=O)O)c(=O)[nH]1 [compound 12, (Z)-2-((3-Ethoxy-3-oxoprop-1-en-1-yl)thio)-3,4-dihydro-4-oxopyrimidine-5-carboxylic Acid] |
| 100 ± 4 µM | 63.3 ± 3.7 µM | 64.1 ± 4 µM | 75.3 ± 7 µM | 104 ± 4.1% | 107 ± 4.2% |  | O=C(O)/C=C\Sc1ncc(C(=O)O)c(=O)[nH]1 [compound 13, (Z)-2-((2-carboxyvinyl)thio)-3,4-dihydro-4-oxopyrimidine-5-carboxylic Acid] |
